Data reported in PMC8809408 (Frontiers in Pharmacology, 2022).

Each compound was assayed on pseudotyped viruses harboring glycoprotein of vesicular stomatitis virus (VSV).
Assay type: cell-based

SMILES	luciferase activity (infection by VSV-G pseudotyped viruses)
CN(C)CCCC1(c2ccc(F)cc2)OCc2cc(C#N)ccc21 (stereo not shown) [Citalopram]	remained ineffective
CN(C)CCCN1c2ccccc2CCc2ccc(Cl)cc21 [Clomipramine]	reduced the infection
CNCCC(Oc1ccc(C(F)(F)F)cc1)c1ccccc1 (stereo not shown) [Fluoxetine]	reduced the infection
OCCN1CCN(CCC=C2c3ccccc3Sc3ccc(C(F)(F)F)cc32)CC1 [Flupenthixol]	reduced the infection
COCCCC/C(=N\OCCN)c1ccc(C(F)(F)F)cc1 [Fluvoxamine]	remained ineffective
Fc1ccc([C@@H]2CCNC[C@H]2COc2ccc3c(c2)OCO3)cc1 [Paroxetine]	remained ineffective
CCOc1ccccc1OC(c1ccccc1)C1CNCCO1 (stereo not shown) [Reboxetine]	reduced the infection
